# According to patent publication US20110158980A1, “METHODS TO TREAT AND SCREEN FOR AGENTS TO TREAT OBESITY” (TRUSTEES OF TUFTS COLLEGE, priority 2008, published 2011):
# Tested on: 3T3-L1 adipocytes
# Assay: Metabolic flux analysis (stoichiometric model) of adipocyte intermediary metabolism
# Type: cell-based
# Procedure: 3T3-L1 preadipocytes were plated onto 24-well plates and expanded in preadipocyte growth medium consisting of DMEM supplemented with calf serum (10% v/v), penicillin and streptomycin. Medium was replenished every other day. Two days post-confluence, the cells were induced to differentiate using an adipogenic cocktail (1 μg/ml insulin, 0.5 mM isobutylmethylxanthine, and 1 μM dexamethasone) added to a basal medium (DMEM with 10% fetal bovine serum and penicillin/streptomycin). After 48 hrs, the first medium was replaced with a second induction medium consisting of the basal adipocyte medium supplemented with only insulin. […] This basal medium was replenished every other day during the remainder of the culture experiments.
# A stoichiometric model of adipocyte central carbon metabolism was constructed as described previously (Si Y, Yoon J, Lee K. American journal of physiology 2007; 292:E1637-46). The model consisted of the major pathways of central carbon metabolism (Table 1). Intracellular fluxes were estimated by solving a constrained non-linear optimization problem with stoichiometric and thermodynamic constraints (Nolan R P, Fenley A P, Lee K. Metab Eng 2006; 8:30-45).
structure (smiles),measurement,setting,value
O=C(O)Cc1ccccc1 [phenylacetate],Increase of lipolysis,5 mM PA,1.2 fold
same,Decrease of citrate transport out of the mitochondria,5 mM phenylacetate,40%
same,Decrease of pyruvate carboxylase flux,5 mM phenylacetate,23%
same,Increase of lipolysis,10 mM PA,1.4 fold
same,Calculated CO2 output lower,10 mM phenylacetate,23%
same,Decrease of PDC flux,10 mM phenylacetate,27%
same,Decrease of citrate transport out of the mitochondria,10 mM phenylacetate,46%
same,Decrease of pyruvate carboxylase flux,10 mM phenylacetate,33%
same,Flux RXN 1 Glycolysis: Glucose + ATP = Glucose 6-P + ADP,"PA 5 mM, day 12 post-induction",367.0 ± 17.6 mmol/g-DNA/2 days
same,Flux RXN 2 Glycolysis: Glucose 6-P = Fructose 6-P,"PA 5 mM, day 12 post-induction",359.9 ± 23.3 mmol/g-DNA/2 days
same,Flux RXN 3 Glycolysis: Fructose 6-P + ATP = Glyceraldehyde 3-P + Glycerone-P + ADP,"PA 5 mM, day 12 post-induction",364.7 ± 19.3 mmol/g-DNA/2 days
same,Flux RXN 4 Glycolysis: Glycerone-P = Glyceraldehyde 3-P,"PA 5 mM, day 12 post-induction",342.7 ± 18.4 mmol/g-DNA/2 days
same,Flux RXN 5 Glycolysis: Glyceraldehyde 3-P + NAD+ + ADP + Pi = P-Enolpyruvate + ATP + H2O,"PA 5 mM, day 12 post-induction",709.8 ± 35.8 mmol/g-DNA/2 days
same,Flux RXN 6 Glycolysis: P-Enolpyruvate + ADP + H+ = Pyruvate + ATP,"PA 5 mM, day 12 post-induction",784.6 ± 35.5 mmol/g-DNA/2 days
same,Flux RXN 7 Glycolysis: Pyruvate + NADH + H+ = Lactate + NAD+,"PA 5 mM, day 12 post-induction",410.4 ± 19.1 mmol/g-DNA/2 days
same,Flux RXN 8 Pentose phosphate pathway: Glucose 6-P + 2 NADP+ + H2O = Ribulose 5-P + CO2 + 2 NADPH + 2 H+,"PA 5 mM, day 12 post-induction",7.1 ± 7.8 mmol/g-DNA/2 days
same,Flux RXN 9 Pentose phosphate pathway: 3 Ribulose 5-P = 2 Fructose 6-P + Glyceraldehyde 3-P,"PA 5 mM, day 12 post-induction",2.4 ± 2.6 mmol/g-DNA/2 days
same,Flux RXN 10 TCA cycle (mitochondria) (PDC),"PA 5 mM, day 12 post-induction",312.7 ± 48.2 mmol/g-DNA/2 days
same,Flux RXN 11 TCA cycle (mitochondria) (PC),"PA 5 mM, day 12 post-induction",141.4 ± 13.2 mmol/g-DNA/2 days
same,Flux RXN 12 TCA cycle (mitochondria),"PA 5 mM, day 12 post-induction",200.9 ± 54.1 mmol/g-DNA/2 days
same,Flux RXN 13 TCA cycle (mitochondria),"PA 5 mM, day 12 post-induction",237.8 ± 52.0 mmol/g-DNA/2 days
same,Flux RXN 14 TCA cycle (mitochondria),"PA 5 mM, day 12 post-induction",251.0 ± 52.6 mmol/g-DNA/2 days
same,Flux RXN 15 TCA cycle (mitochondria),"PA 5 mM, day 12 post-induction",251.2 ± 52.7 mmol/g-DNA/2 days
same,Flux RXN 16 TCA cycle (mitochondria),"PA 5 mM, day 12 post-induction",171.3 ± 45.2 mmol/g-DNA/2 days
same,Flux RXN 17 TCA cycle: Citrate + CoA + ATP = Acetyl-CoA + Oxaloacetate + ADP + Pi,"PA 5 mM, day 12 post-induction",74.9 ± 9.0 mmol/g-DNA/2 days
same,Flux RXN 18 TCA cycle: Oxaloacetate + NADH + H+ = Malate + NAD+,"PA 5 mM, day 12 post-induction",0.0 ± 0.0 mmol/g-DNA/2 days
same,Flux RXN 19 TCA cycle: Malate + NADP+ = Pyruvate + CO2 + NADPH,"PA 5 mM, day 12 post-induction",79.9 ± 9.7 mmol/g-DNA/2 days
same,Flux RXN 20 TCA cycle: Citrate + NADP+ = 2-Oxoglutarate + CO2 + NADPH + H+,"PA 5 mM, day 12 post-induction",36.9 ± 7.3 mmol/g-DNA/2 days
same,Flux RXN 21 TCA cycle: Oxaloacetate + ATP = P-Enolpyruvate + CO2 + ADP,"PA 5 mM, day 12 post-induction",74.8 ± 9.0 mmol/g-DNA/2 days
same,Flux RXN 22 Oxidative phosphorylation (NADH + 0.5 O2),"PA 5 mM, day 12 post-induction",527.6 ± 214.3 mmol/g-DNA/2 days
same,Flux RXN 23 Oxidative phosphorylation (FADH2 + 0.5 O2),"PA 5 mM, day 12 post-induction",272.8 ± 53.3 mmol/g-DNA/2 days
same,Flux RXN 24 Palmitate biosynthesis,"PA 5 mM, day 12 post-induction",9.4 ± 1.1 mmol/g-DNA/2 days
same,Flux RXN 25 Tripalmitoylglycerol biosynthesis: Glycerone-P + 3 Palmitate to Tripalmitoylglycerol,"PA 5 mM, day 12 post-induction",22.0 ± 1.3 mmol/g-DNA/2 days
same,Flux RXN 26 Tripalmitoylglycerol + 3 H2O = Glycerol + 3 Palmitate,"PA 5 mM, day 12 post-induction",19.2 ± 1.4 mmol/g-DNA/2 days
same,Flux RXN 27 Tripalmitoylglycerol accumulation,"PA 5 mM, day 12 post-induction",2.8 ± 0.4 mmol/g-DNA/2 days
same,Flux RXN 28 Metabolism of ketone bodies,"PA 5 mM, day 12 post-induction",8.4 ± 0.3 mmol/g-DNA/2 days
same,Flux RXN 29 Metabolism of ketone bodies,"PA 5 mM, day 12 post-induction",0.0 ± 0.0 mmol/g-DNA/2 days
same,Flux RXN 30 Metabolism of ketone bodies (to 3-Hydroxybutyrate),"PA 5 mM, day 12 post-induction",17.0 ± 0.6 mmol/g-DNA/2 days
same,Flux RXN 31 Amino acid metabolism: Pyruvate + NH4+ + NADPH = Alanine,"PA 5 mM, day 12 post-induction",0.0 ± 0.0 mmol/g-DNA/2 days
same,Flux RXN 32 Amino acid metabolism: Aspartate + NH4+ = Asparagine,"PA 5 mM, day 12 post-induction",2.3 ± 0.1 mmol/g-DNA/2 days
same,Flux RXN 33 Amino acid metabolism: Aspartate = Oxaloacetate + NH4+ + NADH,"PA 5 mM, day 12 post-induction",0.0 ± 0.0 mmol/g-DNA/2 days
same,Flux RXN 34 Amino acid metabolism: Cysteine = Pyruvate + NH4+ + NADH,"PA 5 mM, day 12 post-induction",0.0 ± 0.0 mmol/g-DNA/2 days
same,Flux RXN 35 Amino acid metabolism: Glutamate = 2-Oxoglutarate + NH4+ + NADH,"PA 5 mM, day 12 post-induction",0.0 ± 0.0 mmol/g-DNA/2 days
same,Flux RXN 36 Amino acid metabolism: Glutamate + NH4+ + ATP = Glutamine,"PA 5 mM, day 12 post-induction",5.3 ± 0.4 mmol/g-DNA/2 days
same,Flux RXN 37 Amino acid metabolism: Serine + THF = Glycine,"PA 5 mM, day 12 post-induction",5.8 ± 0.2 mmol/g-DNA/2 days
same,Flux RXN 38 Amino acid metabolism: Histidine + THF = Glutamate + NH4+,"PA 5 mM, day 12 post-induction",2.7 ± 0.2 mmol/g-DNA/2 days
same,Flux RXN 39 Amino acid metabolism: Isoleucine + 2 CoA,"PA 5 mM, day 12 post-induction",8.1 ± 0.3 mmol/g-DNA/2 days
same,Flux RXN 40 Amino acid metabolism: Leucine + CoA + CO2 + ATP,"PA 5 mM, day 12 post-induction",8.6 ± 0.3 mmol/g-DNA/2 days
same,Flux RXN 41 Amino acid metabolism: Lysine = 2-Oxoadipate + 2 NH4+ + 3 NADH,"PA 5 mM, day 12 post-induction",0.0 ± 0.0 mmol/g-DNA/2 days
same,Flux RXN 42 Amino acid metabolism: 2-Oxoadipate + CoA,"PA 5 mM, day 12 post-induction",0.0 ± 0.0 mmol/g-DNA/2 days
same,Flux RXN 43 Amino acid metabolism: Methionine + Serine + ATP + CoA + THF,"PA 5 mM, day 12 post-induction",0.0 ± 0.0 mmol/g-DNA/2 days
same,Flux RXN 44 Amino acid metabolism: Phenylalanine + O2 + NADH = Tyrosine,"PA 5 mM, day 12 post-induction",0.0 ± 0.0 mmol/g-DNA/2 days
same,Flux RXN 45 Amino acid metabolism: Glutamate + ATP + 2 NADPH = Proline,"PA 5 mM, day 12 post-induction",0.0 ± 0.0 mmol/g-DNA/2 days
same,Flux RXN 46 Amino acid metabolism: Serine = Pyruvate + NH4+,"PA 5 mM, day 12 post-induction",0.0 ± 0.0 mmol/g-DNA/2 days
same,Flux RXN 47 Amino acid metabolism: Threonine + CoA to Glycine,"PA 5 mM, day 12 post-induction",0.1 ± 0.1 mmol/g-DNA/2 days
same,Flux RXN 48 Amino acid metabolism: Tryptophan + 3 O2 + NADPH = 2-Oxoadipate + Alanine + CO2 + NH4+,"PA 5 mM, day 12 post-induction",0.0 ± 0.0 mmol/g-DNA/2 days
same,Flux RXN 49 Amino acid metabolism: Tyrosine + 2 O2,"PA 5 mM, day 12 post-induction",0.2 ± 0.1 mmol/g-DNA/2 days
same,Flux RXN 50 Amino acid metabolism: Valine + CoA,"PA 5 mM, day 12 post-induction",5.1 ± 0.4 mmol/g-DNA/2 days
same,Flux RXN 51 Plasma exchange: Palmitate,"PA 5 mM, day 12 post-induction",1.0 ± 0.1 mmol/g-DNA/2 days
same,Flux RXN 52 Plasma exchange: Acetoacetate,"PA 5 mM, day 12 post-induction",0.2 ± 0.2 mmol/g-DNA/2 days
same,Flux RXN 53 Plasma exchange: Alanine,"PA 5 mM, day 12 post-induction",0.0 ± 0.0 mmol/g-DNA/2 days
same,Flux RXN 54 Plasma exchange: Aspartate,"PA 5 mM, day 12 post-induction",2.3 ± 0.1 mmol/g-DNA/2 days
same,Flux RXN 55 Plasma exchange: Cysteine,"PA 5 mM, day 12 post-induction",0.0 ± 0.0 mmol/g-DNA/2 days
same,Flux RXN 56 Plasma exchange: Glutamate,"PA 5 mM, day 12 post-induction",2.6 ± 0.2 mmol/g-DNA/2 days
same,Flux RXN 57 Plasma exchange: Glycine,"PA 5 mM, day 12 post-induction",5.9 ± 0.2 mmol/g-DNA/2 days
same,Flux RXN 58 Plasma exchange: Serine,"PA 5 mM, day 12 post-induction",5.8 ± 0.2 mmol/g-DNA/2 days
same,Flux RXN 59 Plasma exchange: Tyrosine,"PA 5 mM, day 12 post-induction",0.1 ± 0.1 mmol/g-DNA/2 days
same,Flux RXN 60 Plasma exchange: O2 (calculated oxygen uptake rate),"PA 5 mM, day 12 post-induction",400.5 ± 134.0 mmol/g-DNA/2 days
same,Flux RXN 61 Plasma exchange: CO2,"PA 5 mM, day 12 post-induction",805.5 ± 145.9 mmol/g-DNA/2 days
same,Flux RXN 62 Plasma exchange: NH4+,"PA 5 mM, day 12 post-induction",17.0 ± 1.0 mmol/g-DNA/2 days
same,Flux RXN 63 Mitochondrial exchange: Pyruvate,"PA 5 mM, day 12 post-induction",454.0 ± 54.4 mmol/g-DNA/2 days
same,"Flux RXN 64 Mitochondrial exchange: Malate in, Citrate out","PA 5 mM, day 12 post-induction",111.7 ± 15.8 mmol/g-DNA/2 days
